How the values were obtained:
in vitro = details: human
[1] = test system: SARS-CoV-2 stock strain NL/2020; assay: Antiviral activity in A549-ACE2 cells using viral antigen quantitation (SARS-CoV-2 N protein immunofluorescence); format: cell-based; details: Severe acute respiratory syndrome coronavirus 2, MOI 0.005, 48 h; for EC50: concentration reducing SARS-CoV-2 infection efficiency by 50% vs vehicle; for EC90: concentration reducing SARS-CoV-2 infection efficiency by 90% vs vehicle

For `COC(=O)c1cc(-c2ccc3[nH]cnc3c2)ccc1NC(C#N)[C@H](Cc1c[nH]c2ccccc12)NC(=O)OC(C)(C)C` (mixture of isomers) [Example 15, Methyl 5-(1H-benzo[d]imidazol-5-yl)-2-(((1RS,2S)-2-((tert-butoxycarbonyl)amino)-1-cyano-3-(1H-indol-3-yl)propyl)amino)benzoate], the CC50 (in vitro) was 50 µM, the EC50 [1] was 1 µM and the EC90 [1] was 4 µM.

Compound `COC(=O)c1cc(-c2ccc(CN3CCOCC3)cc2)ccc1NC(C#N)[C@H](Cc1c[nH]c2ccccc12)NC(=O)OC(C)(C)C` (mixture of isomers) [Example 10, Methyl 4-(((1RS,2S)-2-((tert-butoxycarbonyl)amino)-1-cyano-3-(1H-indol-3-yl)propyl)amino)-4'-(morpholinomethyl)-[1,1'-biphenyl]-3-carboxylate] has a CC50 (in vitro) greater than 50 µM, an EC50 [1] of 0.9 µM and an EC90 [1] of 2 µM.

For `COC(=O)c1cc(-c2ccc(F)c(-c3nn[nH]n3)c2)ccc1NC(C#N)[C@H](Cc1c[nH]c2ccccc12)NC(=O)OC(C)(C)C` (mixture of isomers) [Example 21, Methyl 4-(((1RS,2S)-2-((tert-butoxycarbonyl)amino)-1-cyano-3-(1H-indol-3-yl)propyl)amino)-4'-fluoro-3'-(2H-tetrazol-5-yl)-[1,1'-biphenyl]-3-carboxylate], the CC50 (in vitro) was greater than 50 µM, the EC50 [1] was 6 µM and the EC90 [1] was greater than 50 µM.

For `COC(=O)c1cc(-c2ccc(N3CCOCC3)cc2)ccc1NC(C#N)[C@H](Cc1c[nH]c2cc(Br)ccc12)NC(=O)OC(C)(C)C` (mixture of isomers) [Example 2, Methyl 4-(((1RS,2S)-3-(6-bromo-1H-indol-3-yl)-2-((tert-butoxycarbonyl)amino)-1-cyanopropyl)amino)-4'-morpholino-[1,1'-biphenyl]-3-carboxylate], the CC50 (in vitro) was greater than 50 µM, the EC50 [1] was 1.6 µM and the EC90 [1] was 6 µM.

`COC(=O)c1cc(-c2ccc3c(ccn3C(=O)OC(C)(C)C)c2)ccc1NC(C#N)[C@H](Cc1c[nH]c2ccccc12)NC(=O)OC(C)(C)C` (mixture of isomers) [Example 19, tert-Butyl 5-(4-(((1RS,2S)-2-((tert-butoxycarbonyl)amino)-1-cyano-3-(1H-indol-3-yl)propyl)amino)-3-(methoxycarbonyl)phenyl)-1H-indole-1-carboxylate] showed a CC50 (in vitro) greater than 50 µM, an EC50 [1] of 6 µM and an EC90 [1] of 31 µM.

With `COC(=O)c1cc(-c2ccnn2C2CCCCO2)ccc1NC(C#N)[C@H](Cc1c[nH]c2ccccc12)NC(=O)OC(C)(C)C` (mixture of isomers) [Example 23, Methyl 2-(((1RS,2S)-2-((tert-butoxycarbonyl)amino)-1-cyano-3-(1H-indol-3-yl)propyl)amino)-5-(1-(tetrahydro-2H-pyran-2-yl)-1H-pyrazol-5-yl)benzoate] the CC50 (in vitro) was 50 µM, the EC50 [1] was 4 µM and the EC90 [1] was 8 µM.

`COC(=O)c1cc(-c2ccc(N3CCOCC3)cc2)ccc1NC(C#N)[C@H](Cc1c[nH]c2ccc(Br)cc12)NC(=O)OC(C)(C)C` (mixture of isomers) [Example 1, Methyl 4-(((1RS,2S)-3-(5-bromo-1H-indol-3-yl)-2-((tert-butoxycarbonyl)amino)-1-cyanopropyl)amino)-4'-morpholino-[1,1'-biphenyl]-3-carboxylate] showed a CC50 (in vitro) greater than 50 µM, an EC50 [1] of 0.8 µM and an EC90 [1] of 6 µM.

In the case of `COC(=O)c1cc(-c2ccc3c(c2)OCCO3)ccc1NC(C#N)[C@@H](Cc1c[nH]c2ccccc12)NC(=O)OC(C)(C)C` (mixture of isomers) [Example 28, Methyl 2-(((1RS,2R)-2-((tert-butoxycarbonyl)amino)-1-cyano-3-(1H-indol-3-yl)propyl)amino)-5-(2,3-dihydrobenzo[b][1,4]dioxin-6-yl)benzoate], the CC50 (in vitro) is reported as greater than 50 µM, the EC50 [1] is reported as 7 µM and the EC90 [1] is reported as 30 µM.

Work on `COC(=O)c1cc(-c2cnn(CCN3CCOCC3)c2)ccc1NC(C#N)[C@H](Cc1c[nH]c2ccccc12)NC(=O)OC(C)(C)C` (mixture of isomers) [Example 25, Methyl 2-(((1RS,2S)-2-((tert-butoxycarbonyl)amino)-1-cyano-3-(1H-indol-3-yl)propyl)amino)-5-(1-(2-morpholinoethyl)-1H-pyrazol-4-yl)benzoate] yielded a CC50 (in vitro) greater than 50 µM, an EC50 [1] of 6 µM and an EC90 [1] of 9 µM.

From EP4548976A1, “ANTIVIRAL COMPOUNDS AND COMPOSITIONS THEREFROM” (Consejo Superior De Investigaciones Científicas, priority 2023, dated 2025)
